{
  "source": "patent US11007269B2",
  "about": "“P53 degradation inducing molecule and pharmaceutical composition” (Tokyo University of Science Foundation, priority 2016, dated 2021)",
  "biological_target": "endogenous wild-type p53 protein (Homo sapiens, UniProt P04637)",
  "sequence (P04637 whole entry)": "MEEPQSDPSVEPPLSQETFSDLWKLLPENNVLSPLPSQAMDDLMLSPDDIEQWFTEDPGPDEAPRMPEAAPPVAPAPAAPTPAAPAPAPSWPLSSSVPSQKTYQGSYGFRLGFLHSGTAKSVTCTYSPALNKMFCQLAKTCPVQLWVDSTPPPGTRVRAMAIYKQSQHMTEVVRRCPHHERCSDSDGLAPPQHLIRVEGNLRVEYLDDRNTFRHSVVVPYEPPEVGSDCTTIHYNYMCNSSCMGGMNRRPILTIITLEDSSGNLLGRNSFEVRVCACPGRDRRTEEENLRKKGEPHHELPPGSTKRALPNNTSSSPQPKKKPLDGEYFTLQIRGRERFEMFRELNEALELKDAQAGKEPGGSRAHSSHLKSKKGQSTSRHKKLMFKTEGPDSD",
  "test": "Western blot of endogenous wild-type p53 protein degradation in HeLa cells, with rescue by proteasome inhibitor",
  "format": "cell-based",
  "set-up": "endogenous in cells",
  "procedure": "In Example 3, degradation (knockdown) of an endogenous wild-type p53 protein in HeLa cells (human cervical cancer cells) to which TIBC-CANDDY_MLN has been added was evaluated by Western blot analysis. At the same time, a rescue of degradation of the p53 protein by a proteasome inhibitor (MLN2238) was evaluated.\nHeLa cells were seeded in a 24-well plate at a cell density of 4×10^4 cells/well, and then cultured under conditions of 37° C. and 5 vol % CO2 for 16 hours.\nAfter 16 hours from cell seeding, TIBC-CANDDY_MLN was added to HeLa cells as follows. As a medium, a serum-free medium (37° C.) in which 1 mass % L-glutamine solution (Sigma-Aldrich) was added to D-MEM (high D-glucose, phenol red, sodium pyruvate (Wako Pure Chemical Industries, Ltd.)) was used. It is noted that the L-glutamine solution was added immediately before use. A DMSO solution containing TIBC-CANDDY_MLN was mixed with the medium so that the concentration of DMSO was 1 vol %, and added to each well at 500 μL/well, and cultured under conditions of 37° C. and 5 vol % CO2. As a control, DMSO was used. Furthermore, in addition to an experiment group in which a DMSO solution containing TIBC-CANDDY_MLN had been added, an experiment group in which a DMSO solution containing both TIBC-CANDDY_MLN and MLN2238, or MLN2238 had been added was prepared. […]",
  "data": [
    {"smiles": "CC(C)C[C@H](NC(=O)CNC(=O)c1cc(Cl)ccc1Cl)C(=O)NCCCCCCC(=O)Nc1ccc(C(=O)/C=C/c2ccc(I)cc2)cc1", "note": "[TIBC-CANDDY_MLN]", "values": [
      {"measurement": "amount of the endogenous wild-type p53 protein (Western blot)", "setting": "24 hours after addition, vs DMSO control", "result": "reduced"},
      {"measurement": "amount of the wild-type p53 protein when proteasome inhibitor MLN2238 is added as well (rescue)", "setting": "24 hours, both TIBC-CANDDY_MLN and MLN2238 added", "result": "increased as compared with the control (DMSO)"}
    ]}
  ]
}
